How the values were obtained:
[1] = system: gastric adenocarcinoma (SGC-7901) cells; test: MTT antiproliferative assay, SGC-7901; type: cell-based, human; conditions: mean±SD of 3 experiments
Description: (§1) In vitro antiproliferative activity against three human tumor cell lines, including gastric adenocarcinoma (SGC-7901), oral carcinoma (KB) and fibrosarcoma (HT-1080), was evaluated using the MTT assay with cis-platinum (Cpt) as the positive control.
(§2) The antiproliferative activity of the synthetic compounds was measured by 3-(4, 5- dimethylthiazol-2-yl)-2, 5-diphenyltetrazolium bromide (MTT) assay. Cells were seeded in 96-well plates (Corning, NY, USA) at a density of 8×10^3 per well. After 24 h of incubation, cells were treated with different concentrations (0.1, 0.3, 1, 3 and 10 μg/ml) of the EM-A dimers for the indicated time periods. Afterwards, MTT (Sigma, St. Louis, MO) solution [5.0 mg/ml in phosphate-buffered saline (PBS)] was added (20 μl/well) and incubated for another 4 h at 37°C. The purple formazan crystals were then dissolved in 100 μl dimethyl sulfoxide (DMSO). After 5 min, the plates were read on a plate microreader (TECANSPECTRA, Wetzlar, Germanay) at 490 nm. The IC50 values were obtained using the software of Dose–Effect Analysis with Microcomputers and were defined as concentration of drug causing 50% inhibition in absorbance compared with control cells. Assays were performed in triplicate from three independent experiments.

[2] = system: oral carcinoma (KB) cells; test: MTT antiproliferative assay, KB; type: cell-based, human; conditions: 24 h of drug exposure, mean±SD of 3 experiments
Description: as §1, §2

[3] = system: fibrosarcoma (HT-1080) cells; test: MTT antiproliferative assay, HT-1080; type: cell-based, human; conditions: mean±SD of 3 experiments
Description: as §1, §2

[4] = system: normal mouse fibroblast cells (L929); test: MTT assay, toxicity against normal fibroblasts L929; type: cell-based
Description: as §2

[5] = system: gastric carcinoma (BGC-823) cells; test: MTT antiproliferative assay, BGC-823; type: cell-based, human; conditions: 24 h of drug exposure, mean±SD of 3 experiments
Description: (§3) All cell lines were purchased from American Type Culture Collection (ATCC, Manassas, VA, USA). Non-small cell lung carcinoma cells (A549), hepatocellular carcinoma cells (HepG-2) and breast carcinoma cells (MCF-7) were cultured in DMEM medium (Sigma, St. Louis, MO, USA), while gastric carcinoma cells (BGC-823), laryngeal carcinoma cells (Hep2), cervical carcinoma cells (HeLa) were cultured in RPMI-1640 medium (Sigma, St. Louis, MO, USA), which were supplemented with 10% fetal bovine serum (FBS; TBD, Tianjin, China) at 37°C in humidified atmosphere with 5% CO2.
as §2, with “The IC50 values were obtained using the software of Dose–Effect Analysis with Microcomputers and were defined as concentration of drug causing 50% inhibition in absorbance compared with control cells. Assays were performed in triplicate from three independent experiments.” left out

[6] = system: non-small cell lung carcinoma (A549) cells; test: MTT antiproliferative assay, A549; type: cell-based, human; conditions: 24 h of drug exposure, mean±SD of 3 experiments
Description: as §3
as §2, with “The IC50 values were obtained using the software of Dose–Effect Analysis with Microcomputers and were defined as concentration of drug causing 50% inhibition in absorbance compared with control cells. Assays were performed in triplicate from three independent experiments.” left out

[7] = system: hepatocellular carcinoma (HepG-2) cells; test: MTT antiproliferative assay, HepG-2; type: cell-based, human; conditions: 24 h of drug exposure, mean±SD of 3 experiments
Description: as §3
as §2, with “The IC50 values were obtained using the software of Dose–Effect Analysis with Microcomputers and were defined as concentration of drug causing 50% inhibition in absorbance compared with control cells. Assays were performed in triplicate from three independent experiments.” left out

[8] = system: laryngeal carcinoma (Hep2) cells; test: MTT antiproliferative assay, Hep2; type: cell-based, human; conditions: 24 h of drug exposure, mean±SD of 3 experiments
Description: as §3
as §2, with “The IC50 values were obtained using the software of Dose–Effect Analysis with Microcomputers and were defined as concentration of drug causing 50% inhibition in absorbance compared with control cells. Assays were performed in triplicate from three independent experiments.” left out

[9] = system: cervical carcinoma (HeLa) cells; test: MTT antiproliferative assay, HeLa; type: cell-based, human; conditions: 24 h of drug exposure, mean±SD of 3 experiments
Description: as §3
as §2, with “The IC50 values were obtained using the software of Dose–Effect Analysis with Microcomputers and were defined as concentration of drug causing 50% inhibition in absorbance compared with control cells. Assays were performed in triplicate from three independent experiments.” left out

[10] = system: breast carcinoma (MCF-7) cells; test: MTT antiproliferative assay, MCF-7; type: cell-based, human; conditions: 24 h of drug exposure, mean±SD of 3 experiments
Description: as §3
as §2, with “The IC50 values were obtained using the software of Dose–Effect Analysis with Microcomputers and were defined as concentration of drug causing 50% inhibition in absorbance compared with control cells. Assays were performed in triplicate from three independent experiments.” left out

[11] = Homo sapiens, SGC-7901, 24 h of drug exposure
[12] = Homo sapiens, HT-1080, 24 h of drug exposure

| Compound | IC50 ([1]; 24 h of drug exposure) [µM] | IC50 [2] [µM] | IC50 ([3]; 24 h of drug exposure) [µM] | IC50 ([4]; 24 h of drug exposure) [µM] | IC50 [5] [µM] | IC50 [6] [µM] | IC50 [7] [µM] | IC50 [8] [µM] | IC50 [9] [µM] | IC50 [10] [µM] | IC50 [1, 11] [µM] | IC50 ([2]; Homo sapiens, KB) [µM] | IC50 [3, 12] [µM] | IC50 ([4]; L929, 24 h of drug exposure) [µM] |
| --- | --- | --- | --- | --- | --- | --- | --- | --- | --- | --- | --- | --- | --- | --- |
| N.N.[Cl][Pt][Cl] [Cpt, cis-platinum] | 4.9 ± 0.4 | 4.7 ± 0.3 | 19.7 ± 1.5 | 18.5 | 11.8 ± 0.2 | 5.8 ± 0.2 | 4.7 ± 0.4 | 12.3 ± 1.3 | 17.4 ± 1.4 | 2.9 ± 0.1 | – | – | – | – |
| CCC1OC(=O)C(C)C(O)C(C)C(OC2OC(C)CC(N(C)CC=CCN(C)C3CC(C)OC(OC4C(C)C(OC5CC(C)(OC)C(O)C(C)O5)C(C)C(=O)OC(CC)C(C)(O)C(O)C(C)C(=O)C(C)CC4(C)OC)C3O)C2O)C(C)(OC)CC(C)C(=O)C(C)C(O)C1(C)O (stereo not drawn) [Compound 1i] | – | – | – | – | – | – | – | – | – | – | 27.1 ± 2.2 | 3.1 ± 0.3 | 11.9 ± 0.8 | > 100 |
| CC[C@H]1OC(=O)[C@H](C)[C@@H](O[C@H]2C[C@@](C)(OC)[C@@H](O)[C@H](C)O2)[C@H](C)[C@@H](O[C@@H]2O[C@H](C)C[C@H](N(C)C)[C@H]2O)[C@](C)(OC)C[C@@H](C)C(=O)[C@H](C)[C@@H](O)[C@]1(C)O [clarithromycin, reference compound] | – | – | – | – | – | – | – | – | – | – | > 100 | > 100 | > 100 | > 100 |

— PMC4957748, “Development of Novel Erythromycin Derivatives with Inhibitory Activity against Proliferation of Tumor Cells” (PLoS ONE, 2016)
